In ChEMBL document CHEMBL4804286, “3-amino-4-(4-(4 (dimethylcarbamoyl) phenyl)-1,4-diazepan-1-yl) thieno [2,3-b] pyridine-2-carboxamide for use in cancer therapy and formulations comprising the same” (2020):
“And” between values parts separate entries of the source, which are not always exact repeats. Equal entries are not always repeated. The source made the active and inactive calls. The calls are words filed in the database; no cut-off is given here.

Assays:
[1] = target: Phosphatidylinositol 4,5-bisphosphate 3-kinase catalytic subunit alpha isoform (Homo sapiens) (UniProt P42336); assay: Inhibition of human PIK3CA assessed as percent of control at 2000 nM by KINOMEscan assay relative to control; parameters: scale not given: the % may be the effect or the level left
[2] = target: RAF proto-oncogene serine/threonine-protein kinase (Homo sapiens) (UniProt P04049); assay: Inhibition of human RAF1 assessed as percent of control at 2000 nM by KINOMEscan assay relative to control; parameters: scale not given: the % may be the effect or the level left
[3] = target: Tyrosine-protein kinase ABL1 (Homo sapiens) (UniProt P00519); assay: Inhibition of non-phosphorylated human ABL1 assessed as percent of control at 2000 nM by KINOMEscan assay relative to control; parameters: scale not given: the % may be the effect or the level left
[4] = target: Receptor-interacting serine/threonine-protein kinase 2 (Homo sapiens) (UniProt O43353); assay: Inhibition of human RIPK2 assessed as percent of control at 2000 nM by KINOMEscan assay relative to control; parameters: scale not given: the % may be the effect or the level left
[5] = target: Serine/threonine-protein kinase PknB (Mycobacterium tuberculosis) (UniProt P9WI81); assay: Inhibition of Mycobacterium tuberculosis PKNB assessed as percent of control at 2000 nM by KINOMEscan assay relative to control; parameters: scale not given: the % may be the effect or the level left
[6] = target: Bone morphogenetic protein receptor type-1A (Homo sapiens) (UniProt P36894); assay: Inhibition of human BMPR1A assessed as percent of control at 2000 nM by KINOMEscan assay relative to control; parameters: scale not given: the % may be the effect or the level left
Myc-CaP [7] = assay: Antiproliferative activity against murine castration-resistant Myc-CaP cells at 1 uM assessed as growth inhibition relative to control; format: functional; conditions: Mus musculus
[8] = target: Calcium/calmodulin-dependent protein kinase type II subunit alpha (Homo sapiens) (UniProt Q9UQM7); assay: Inhibition of human CAMK2A assessed as percent of control at 2000 nM by KINOMEscan assay relative to control; parameters: scale not given: the % may be the effect or the level left
[9] = target: Serine/threonine-protein kinase ULK2 (Homo sapiens) (UniProt Q8IYT8); assay: Inhibition of human ULK2 assessed as percent of control at 2000 nM by KINOMEscan assay relative to control; parameters: scale not given: the % may be the effect or the level left
[10] = target: Mitogen-activated protein kinase 8 (Homo sapiens) (UniProt P45983); assay: Inhibition of human JNK1 assessed as percent of control at 2000 nM by KINOMEscan assay relative to control; parameters: scale not given: the % may be the effect or the level left
[11] = target: Serine/threonine-protein kinase PAK 6 (Homo sapiens) (UniProt Q9NQU5); assay: Inhibition of human PAK6 assessed as percent of control at 2000 nM by KINOMEscan assay relative to control; parameters: scale not given: the % may be the effect or the level left
Myc-CaP [12] = assay: Antitumor activity against murine castration-resistant Myc-CaP cells xenografted in male FVB mouse assessed as suppression of tumor weight in presence of enzalutamide; format: functional
[13] = system: Tyrosine-protein kinase ABL1 (Homo sapiens), P00519 [Y253F]; assay: Inhibition of phosphorylated human ABL1 Y253F mutant assessed as percent of control at 2000 nM by KINOMEscan assay relative to control; parameters: scale not given: the % may be the effect or the level left
[14] = target: Mitogen-activated protein kinase kinase kinase 12 (Homo sapiens) (UniProt Q12852); assay: Inhibition of human DLK assessed as percent of control at 2000 nM by KINOMEscan assay relative to control; parameters: scale not given: the % may be the effect or the level left
[15] = system: Mast/stem cell growth factor receptor Kit (Homo sapiens), P10721 [V559D,T670I]; assay: Inhibition of human KIT V559D/T670I double mutant assessed as percent of control at 2000 nM by KINOMEscan assay relative to control; parameters: scale not given: the % may be the effect or the level left
[16] = target: Dual specificity protein kinase CLK3 (Homo sapiens) (UniProt P49761); assay: Inhibition of human CLK3 assessed as percent of control at 2000 nM by KINOMEscan assay relative to control; parameters: scale not given: the % may be the effect or the level left
[17] = target: Protein kinase C eta type (Homo sapiens) (UniProt P24723); assay: Inhibition of human PRKCH assessed as percent of control at 2000 nM by KINOMEscan assay relative to control; parameters: scale not given: the % may be the effect or the level left
[18] = target: Aurora kinase A (Homo sapiens) (UniProt O14965); assay: Inhibition of human AURKA assessed as percent of control at 2000 nM by KINOMEscan assay relative to control; parameters: scale not given: the % may be the effect or the level left
[19] = target: Epidermal growth factor receptor (Homo sapiens) (UniProt P00533); assay: Inhibition of human EGFR assessed as percent of control at 2000 nM by KINOMEscan assay relative to control; parameters: scale not given: the % may be the effect or the level left
[20] = target: MAP kinase-interacting serine/threonine-protein kinase 2 (Homo sapiens) (UniProt Q9HBH9); assay: Inhibition of human MKNK2 assessed as percent of control at 2000 nM by KINOMEscan assay relative to control; parameters: scale not given: the % may be the effect or the level left
[21] = target: Phosphatidylinositol 4-phosphate 5-kinase type-1 gamma (Homo sapiens) (UniProt O60331); assay: Inhibition of human PIP5K1C assessed as percent of control at 2000 nM by KINOMEscan assay relative to control; parameters: scale not given: the % may be the effect or the level left
[22] = target: Serine/threonine-protein kinase TBK1 (Homo sapiens) (UniProt Q9UHD2); assay: Inhibition of human TBK1 assessed as percent of control at 2000 nM by KINOMEscan assay relative to control; parameters: scale not given: the % may be the effect or the level left
[23] = system: Leucine-rich repeat serine/threonine-protein kinase 2 (Homo sapiens), Q5S007 [G2019S]; assay: Inhibition of human LRRK2 G2019S mutant assessed as percent of control at 2000 nM by KINOMEscan assay relative to control; parameters: scale not given: the % may be the effect or the level left
[24] = target: Homeodomain-interacting protein kinase 4 (Homo sapiens) (UniProt Q8NE63); assay: Inhibition of human HIPK4 assessed as percent of control at 2000 nM by KINOMEscan assay relative to control; parameters: scale not given: the % may be the effect or the level left
[25] = target: Macrophage-stimulating protein receptor (Homo sapiens) (UniProt Q04912); assay: Inhibition of human MST1R assessed as percent of control at 2000 nM by KINOMEscan assay relative to control; parameters: scale not given: the % may be the effect or the level left
[26] = target: Serine/threonine-protein kinase DCLK1 (Homo sapiens) (UniProt O15075); assay: Inhibition of human DCAMKL1 assessed as percent of control at 2000 nM by KINOMEscan assay relative to control; parameters: scale not given: the % may be the effect or the level left
[27] = target: Serine/threonine-protein kinase SIK1 (Homo sapiens) (UniProt P57059); assay: Inhibition of human SIK assessed as percent of control at 2000 nM by KINOMEscan assay relative to control; parameters: scale not given: the % may be the effect or the level left
[28] = system: ALK tyrosine kinase receptor (Homo sapiens), Q9UM73 [C1156Y]; assay: Inhibition of human ALK C1156Y mutant assessed as percent of control at 2000 nM by KINOMEscan assay relative to control; parameters: scale not given: the % may be the effect or the level left
[29] = target: Cyclin-dependent kinase 8 (Homo sapiens) (UniProt P49336); assay: Inhibition of human CDK8 assessed as percent of control at 2000 nM by KINOMEscan assay relative to control; parameters: scale not given: the % may be the effect or the level left; conditions: INHIBITOR
[30] = target: Phosphatidylinositol 4-phosphate 3-kinase C2 domain-containing subunit beta (Homo sapiens) (UniProt O00750); assay: Inhibition of human PIK3C2B assessed as percent of control at 2000 nM by KINOMEscan assay relative to control; parameters: scale not given: the % may be the effect or the level left
[31] = target: Casein kinase I isoform delta (Homo sapiens) (UniProt P48730); conditions: INHIBITOR, dose 2000.0 nM
Description: Inhibition of human CSNK1D at 2000 nM by KINOMEscan assay

Phosphatidylinositol 4-phosphate 3-kinase C2 domain-containing subunit beta (Homo sapiens), sequence (O00750 whole entry, the tested form may be a part, canonical isoform): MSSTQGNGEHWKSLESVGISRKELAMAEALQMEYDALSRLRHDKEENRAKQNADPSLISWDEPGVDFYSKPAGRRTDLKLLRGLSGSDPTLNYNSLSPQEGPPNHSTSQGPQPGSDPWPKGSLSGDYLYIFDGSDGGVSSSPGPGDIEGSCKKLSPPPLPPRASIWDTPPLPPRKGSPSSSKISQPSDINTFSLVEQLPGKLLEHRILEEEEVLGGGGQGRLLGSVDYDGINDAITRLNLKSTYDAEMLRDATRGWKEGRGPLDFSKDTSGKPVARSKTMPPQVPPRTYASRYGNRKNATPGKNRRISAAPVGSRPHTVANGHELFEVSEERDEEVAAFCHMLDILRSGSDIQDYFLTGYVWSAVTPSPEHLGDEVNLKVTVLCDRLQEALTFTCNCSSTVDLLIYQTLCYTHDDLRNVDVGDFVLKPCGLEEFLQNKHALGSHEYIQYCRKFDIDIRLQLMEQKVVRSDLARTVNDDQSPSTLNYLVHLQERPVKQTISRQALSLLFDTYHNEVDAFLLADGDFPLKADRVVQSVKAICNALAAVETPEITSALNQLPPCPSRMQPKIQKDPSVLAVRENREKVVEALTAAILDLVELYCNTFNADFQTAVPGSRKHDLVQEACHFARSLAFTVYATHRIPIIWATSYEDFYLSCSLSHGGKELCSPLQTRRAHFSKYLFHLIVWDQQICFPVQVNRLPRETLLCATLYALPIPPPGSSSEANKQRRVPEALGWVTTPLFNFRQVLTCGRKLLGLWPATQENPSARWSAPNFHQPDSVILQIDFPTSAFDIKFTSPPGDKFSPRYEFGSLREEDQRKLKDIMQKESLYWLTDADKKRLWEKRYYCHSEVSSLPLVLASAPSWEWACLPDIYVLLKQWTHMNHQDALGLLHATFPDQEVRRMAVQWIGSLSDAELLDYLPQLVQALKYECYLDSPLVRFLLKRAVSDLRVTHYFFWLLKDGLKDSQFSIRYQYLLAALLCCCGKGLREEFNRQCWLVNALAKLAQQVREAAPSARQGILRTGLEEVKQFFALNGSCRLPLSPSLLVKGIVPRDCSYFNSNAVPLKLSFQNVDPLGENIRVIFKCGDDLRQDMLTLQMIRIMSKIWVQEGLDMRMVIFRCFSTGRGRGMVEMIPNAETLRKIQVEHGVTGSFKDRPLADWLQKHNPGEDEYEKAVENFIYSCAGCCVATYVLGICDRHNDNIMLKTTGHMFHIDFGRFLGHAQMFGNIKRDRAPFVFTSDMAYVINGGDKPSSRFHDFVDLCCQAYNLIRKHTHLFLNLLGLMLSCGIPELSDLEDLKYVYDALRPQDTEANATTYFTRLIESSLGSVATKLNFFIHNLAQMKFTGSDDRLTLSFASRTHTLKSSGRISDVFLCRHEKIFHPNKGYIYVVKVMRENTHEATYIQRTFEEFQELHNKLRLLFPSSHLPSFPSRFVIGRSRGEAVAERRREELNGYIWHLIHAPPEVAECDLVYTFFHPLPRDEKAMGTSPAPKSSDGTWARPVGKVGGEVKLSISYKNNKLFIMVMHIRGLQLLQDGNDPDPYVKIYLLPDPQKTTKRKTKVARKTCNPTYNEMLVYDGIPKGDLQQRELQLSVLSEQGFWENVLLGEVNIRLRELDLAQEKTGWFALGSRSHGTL
Cyclin-dependent kinase 8 (Homo sapiens), sequence (P49336 whole entry, the tested form may be a part): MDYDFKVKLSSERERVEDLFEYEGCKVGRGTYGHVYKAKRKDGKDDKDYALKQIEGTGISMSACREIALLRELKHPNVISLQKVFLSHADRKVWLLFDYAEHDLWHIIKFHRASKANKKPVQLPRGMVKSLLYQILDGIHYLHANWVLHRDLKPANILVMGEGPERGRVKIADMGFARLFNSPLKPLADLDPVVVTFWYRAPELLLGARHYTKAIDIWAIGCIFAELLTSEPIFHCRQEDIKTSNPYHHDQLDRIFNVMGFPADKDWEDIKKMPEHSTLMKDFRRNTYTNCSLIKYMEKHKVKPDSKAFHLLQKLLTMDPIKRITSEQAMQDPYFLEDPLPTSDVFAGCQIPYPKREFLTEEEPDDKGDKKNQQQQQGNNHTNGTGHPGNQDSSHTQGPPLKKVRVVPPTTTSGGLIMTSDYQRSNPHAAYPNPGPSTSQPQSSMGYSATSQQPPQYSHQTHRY
Serine/threonine-protein kinase ULK2 (Homo sapiens), sequence (Q8IYT8 whole entry): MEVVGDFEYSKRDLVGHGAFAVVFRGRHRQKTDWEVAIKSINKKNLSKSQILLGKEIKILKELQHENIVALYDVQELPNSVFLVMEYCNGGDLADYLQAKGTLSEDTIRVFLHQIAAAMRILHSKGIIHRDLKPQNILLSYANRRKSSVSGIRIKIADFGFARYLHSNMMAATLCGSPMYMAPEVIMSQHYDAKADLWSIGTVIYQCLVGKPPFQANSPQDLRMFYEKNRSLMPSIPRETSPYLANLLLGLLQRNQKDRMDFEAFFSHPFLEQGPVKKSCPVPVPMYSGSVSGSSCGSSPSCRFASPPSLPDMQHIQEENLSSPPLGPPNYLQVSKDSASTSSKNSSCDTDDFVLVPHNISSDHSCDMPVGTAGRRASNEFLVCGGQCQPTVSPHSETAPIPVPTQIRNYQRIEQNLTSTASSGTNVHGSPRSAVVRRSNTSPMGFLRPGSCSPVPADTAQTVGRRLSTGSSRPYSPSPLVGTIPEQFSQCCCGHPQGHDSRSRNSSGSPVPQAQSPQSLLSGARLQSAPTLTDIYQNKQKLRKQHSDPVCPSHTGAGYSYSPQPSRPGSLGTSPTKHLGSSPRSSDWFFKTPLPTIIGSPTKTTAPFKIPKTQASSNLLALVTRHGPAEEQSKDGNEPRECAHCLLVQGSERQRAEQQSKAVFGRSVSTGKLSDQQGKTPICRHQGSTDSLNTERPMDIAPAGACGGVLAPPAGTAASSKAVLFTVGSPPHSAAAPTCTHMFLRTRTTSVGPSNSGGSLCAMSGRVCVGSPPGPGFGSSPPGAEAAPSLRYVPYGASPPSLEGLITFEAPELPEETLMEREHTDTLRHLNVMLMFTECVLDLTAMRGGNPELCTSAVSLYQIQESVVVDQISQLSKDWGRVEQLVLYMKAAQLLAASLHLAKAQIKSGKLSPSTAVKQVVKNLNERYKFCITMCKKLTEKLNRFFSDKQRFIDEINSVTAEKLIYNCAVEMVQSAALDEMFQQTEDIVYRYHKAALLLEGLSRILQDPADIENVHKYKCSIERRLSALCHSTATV
Aurora kinase A (Homo sapiens), sequence (O14965 whole entry): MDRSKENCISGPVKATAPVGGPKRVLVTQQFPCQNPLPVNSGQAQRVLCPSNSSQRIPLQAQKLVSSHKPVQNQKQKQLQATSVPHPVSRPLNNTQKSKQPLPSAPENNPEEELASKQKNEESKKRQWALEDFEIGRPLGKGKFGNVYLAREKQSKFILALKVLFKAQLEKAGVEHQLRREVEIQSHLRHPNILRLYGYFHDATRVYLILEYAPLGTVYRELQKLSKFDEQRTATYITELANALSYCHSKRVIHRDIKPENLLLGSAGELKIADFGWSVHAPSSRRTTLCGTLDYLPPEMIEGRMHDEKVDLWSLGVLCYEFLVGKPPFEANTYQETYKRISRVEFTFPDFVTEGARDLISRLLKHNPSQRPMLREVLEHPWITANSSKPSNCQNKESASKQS
Homeodomain-interacting protein kinase 4 (Homo sapiens), sequence (Q8NE63 whole entry): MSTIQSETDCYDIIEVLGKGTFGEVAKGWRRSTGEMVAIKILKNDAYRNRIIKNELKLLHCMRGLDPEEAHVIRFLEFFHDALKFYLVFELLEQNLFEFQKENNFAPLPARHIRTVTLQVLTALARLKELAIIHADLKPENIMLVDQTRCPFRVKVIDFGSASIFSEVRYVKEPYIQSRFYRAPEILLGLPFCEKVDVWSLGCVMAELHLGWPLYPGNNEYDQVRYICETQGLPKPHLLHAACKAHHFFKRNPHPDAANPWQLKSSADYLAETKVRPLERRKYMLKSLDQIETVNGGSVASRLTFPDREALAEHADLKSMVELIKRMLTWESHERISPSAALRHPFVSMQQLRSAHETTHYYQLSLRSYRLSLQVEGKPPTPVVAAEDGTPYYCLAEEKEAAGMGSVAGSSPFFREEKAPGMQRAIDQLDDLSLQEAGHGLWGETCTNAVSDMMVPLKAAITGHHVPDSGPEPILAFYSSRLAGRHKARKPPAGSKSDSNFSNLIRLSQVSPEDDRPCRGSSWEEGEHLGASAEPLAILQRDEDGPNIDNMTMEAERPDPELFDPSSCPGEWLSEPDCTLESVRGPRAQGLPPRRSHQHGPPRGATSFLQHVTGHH
Calcium/calmodulin-dependent protein kinase type II subunit alpha (Homo sapiens), sequence (Q9UQM7 whole entry): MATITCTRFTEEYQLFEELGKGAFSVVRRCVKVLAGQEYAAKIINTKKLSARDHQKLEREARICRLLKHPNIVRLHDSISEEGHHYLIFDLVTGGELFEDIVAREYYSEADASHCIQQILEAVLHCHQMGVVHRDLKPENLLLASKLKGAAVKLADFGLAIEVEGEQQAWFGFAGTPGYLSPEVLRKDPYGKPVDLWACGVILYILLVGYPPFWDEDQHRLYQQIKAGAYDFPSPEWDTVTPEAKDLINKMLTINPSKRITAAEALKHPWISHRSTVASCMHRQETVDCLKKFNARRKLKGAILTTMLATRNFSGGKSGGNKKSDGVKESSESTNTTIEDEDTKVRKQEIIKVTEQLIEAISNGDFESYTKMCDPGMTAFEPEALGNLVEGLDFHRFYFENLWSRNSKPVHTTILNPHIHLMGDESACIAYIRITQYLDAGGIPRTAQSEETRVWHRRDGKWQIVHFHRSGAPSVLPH
Mitogen-activated protein kinase 8 (Homo sapiens), sequence (P45983 whole entry): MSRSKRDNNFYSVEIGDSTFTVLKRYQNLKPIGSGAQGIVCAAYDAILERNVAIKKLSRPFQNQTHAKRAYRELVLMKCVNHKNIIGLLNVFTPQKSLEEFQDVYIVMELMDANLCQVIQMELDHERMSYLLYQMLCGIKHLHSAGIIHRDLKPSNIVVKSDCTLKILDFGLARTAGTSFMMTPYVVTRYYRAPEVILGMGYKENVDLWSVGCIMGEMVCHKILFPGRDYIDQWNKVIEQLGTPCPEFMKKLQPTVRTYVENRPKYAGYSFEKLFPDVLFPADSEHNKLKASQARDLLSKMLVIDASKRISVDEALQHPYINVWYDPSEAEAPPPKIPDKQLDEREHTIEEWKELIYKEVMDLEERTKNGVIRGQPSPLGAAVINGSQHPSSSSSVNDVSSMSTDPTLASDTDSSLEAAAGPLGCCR

CN(C)C(=O)c1ccc(N2CCCN(c3ccnc4sc(C(N)=O)c(N)c34)CC2)cc1
Activity [1]: 100% and 79% | Activity [2]: 97% and 100% | Activity [3]: 95% and 78% | Activity [4]: 100% and 93% | Activity [5]: 100% and 90% | Activity [6]: 100% | Activity (Myc-CaP [7]): Active | Activity [8]: 90% and 100% | Activity [9]: 90% and 83% | Activity [10]: 68% | Activity ([10]; INHIBITOR): 30% | Activity [11]: 82% and 99% | Activity (Myc-CaP [12]): Active | Activity [13]: 100% and 81% | Activity [14]: 93% and 89% | Activity [15]: 100% and 96% | Activity [16]: 100% and 95% | Activity [17]: 80% and 96% | Activity [18]: 98% and 99% | Activity [19]: 100% and 87% | Activity [20]: 83% and 69% | Activity [21]: 64% | Activity ([21]; INHIBITOR): 25% | Activity [22]: 99% and 97% | Activity [23]: 90% and 76% | Activity [24]: 100% | Activity [25]: 97% and 99% | Activity [26]: 100% and 89% | Activity [27]: 84% and 79% | Activity [28]: 100% and 78% | Activity [29]: 2.6% and 0.25% | Activity [30]: 89% and 87% | inhibition [31]: > 65%
